Activity calls are given as the source filed them. The calls are words filed in the database; no cut-off is given here.
What was measured:
Assay type in all cases: functional, cell-based
[1] = molecular target: T1, Muscarinic acetylcholine receptor M1 (Rattus norvegicus) (UniProt P08482); assay: Agonist activity at rat muscarinic M1 receptor expressed in CHO cells at 10 uM
T1 sequence (whole entry): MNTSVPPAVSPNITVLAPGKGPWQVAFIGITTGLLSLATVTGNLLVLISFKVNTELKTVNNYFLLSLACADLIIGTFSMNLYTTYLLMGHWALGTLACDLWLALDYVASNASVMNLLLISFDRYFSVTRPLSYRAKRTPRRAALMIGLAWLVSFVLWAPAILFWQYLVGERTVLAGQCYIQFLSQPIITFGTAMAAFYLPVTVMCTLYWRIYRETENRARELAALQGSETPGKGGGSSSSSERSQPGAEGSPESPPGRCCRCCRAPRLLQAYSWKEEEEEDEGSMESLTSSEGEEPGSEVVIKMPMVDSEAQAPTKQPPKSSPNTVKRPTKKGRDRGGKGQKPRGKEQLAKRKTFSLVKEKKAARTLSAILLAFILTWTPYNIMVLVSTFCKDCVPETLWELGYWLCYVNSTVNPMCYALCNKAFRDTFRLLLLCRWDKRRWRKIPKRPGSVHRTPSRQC

[2] = molecular target: T2, Muscarinic acetylcholine receptor M4 (Rattus norvegicus, UniProt P08485); assay: Agonist activity at rat muscarinic M4 receptor expressed in CHO cells
T2 sequence (P08485 whole entry): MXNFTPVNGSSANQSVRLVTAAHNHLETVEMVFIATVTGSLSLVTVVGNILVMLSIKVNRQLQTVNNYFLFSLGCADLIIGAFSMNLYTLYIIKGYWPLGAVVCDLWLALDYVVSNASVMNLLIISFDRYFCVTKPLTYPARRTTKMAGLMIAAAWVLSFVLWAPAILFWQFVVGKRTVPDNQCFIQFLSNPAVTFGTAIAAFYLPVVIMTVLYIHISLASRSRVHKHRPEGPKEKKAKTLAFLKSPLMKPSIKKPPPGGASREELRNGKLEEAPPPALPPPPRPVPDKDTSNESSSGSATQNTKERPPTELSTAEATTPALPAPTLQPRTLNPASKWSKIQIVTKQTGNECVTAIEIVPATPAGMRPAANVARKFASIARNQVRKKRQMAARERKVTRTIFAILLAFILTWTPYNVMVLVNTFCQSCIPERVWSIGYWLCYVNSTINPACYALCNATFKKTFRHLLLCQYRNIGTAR

[3] = molecular target: Muscarinic acetylcholine receptor M3 (Rattus norvegicus, UniProt P08483); assay: Agonist activity at rat muscarinic M3 receptor expressed in CHO cells
[4] = molecular target: T1, Muscarinic acetylcholine receptor M1 (Rattus norvegicus); assay: Agonist activity at rat muscarinic M1 receptor expressed in CHO cells relative to acetylcholine
[5] = molecular target: T3, Muscarinic acetylcholine receptor M2 (Rattus norvegicus, UniProt P10980); assay: Agonist activity at rat muscarinic M2 receptor expressed in CHO cells
T3 sequence (P10980 whole entry): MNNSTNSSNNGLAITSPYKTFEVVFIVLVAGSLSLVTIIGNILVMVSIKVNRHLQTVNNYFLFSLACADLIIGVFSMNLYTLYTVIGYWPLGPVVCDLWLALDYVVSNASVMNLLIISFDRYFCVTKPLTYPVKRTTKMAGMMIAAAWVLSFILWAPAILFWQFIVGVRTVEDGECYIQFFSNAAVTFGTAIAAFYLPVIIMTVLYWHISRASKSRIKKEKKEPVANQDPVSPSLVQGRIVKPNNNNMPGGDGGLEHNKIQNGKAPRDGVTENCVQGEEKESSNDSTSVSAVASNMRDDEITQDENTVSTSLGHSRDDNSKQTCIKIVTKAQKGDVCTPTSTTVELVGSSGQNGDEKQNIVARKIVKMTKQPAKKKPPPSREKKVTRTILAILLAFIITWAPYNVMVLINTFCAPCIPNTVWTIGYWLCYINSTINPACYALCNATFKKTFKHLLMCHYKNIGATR

[6] = molecular target: T4, Muscarinic acetylcholine receptor M5 (Rattus norvegicus, UniProt P08911); assay: Agonist activity at rat muscarinic M5 receptor expressed in CHO cells
T4 sequence (P08911 whole entry): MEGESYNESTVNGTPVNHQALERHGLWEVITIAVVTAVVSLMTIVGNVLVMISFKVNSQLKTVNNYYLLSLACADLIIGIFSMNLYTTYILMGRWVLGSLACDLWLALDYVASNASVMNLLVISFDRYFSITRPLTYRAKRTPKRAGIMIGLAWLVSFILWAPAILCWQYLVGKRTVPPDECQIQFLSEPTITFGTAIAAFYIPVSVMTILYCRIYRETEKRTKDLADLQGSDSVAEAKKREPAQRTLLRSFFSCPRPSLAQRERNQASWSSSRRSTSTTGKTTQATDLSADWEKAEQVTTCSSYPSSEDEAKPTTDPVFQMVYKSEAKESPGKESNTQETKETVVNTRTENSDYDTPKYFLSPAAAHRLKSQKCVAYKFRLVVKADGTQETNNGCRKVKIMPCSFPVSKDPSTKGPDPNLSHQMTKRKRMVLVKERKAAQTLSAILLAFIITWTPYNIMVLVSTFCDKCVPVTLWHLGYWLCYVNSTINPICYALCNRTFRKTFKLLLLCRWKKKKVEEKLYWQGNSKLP

[7] = molecular target: T5, Muscarinic acetylcholine receptor M1 (Rattus norvegicus, UniProt P08482); assay: Agonist activity at rat muscarinic M1 receptor expressed in CHO cells
T5 sequence (P08482 whole entry): T1 sequence (whole entry)

Chain of Muscarinic acetylcholine receptor M3 (P08483 whole entry): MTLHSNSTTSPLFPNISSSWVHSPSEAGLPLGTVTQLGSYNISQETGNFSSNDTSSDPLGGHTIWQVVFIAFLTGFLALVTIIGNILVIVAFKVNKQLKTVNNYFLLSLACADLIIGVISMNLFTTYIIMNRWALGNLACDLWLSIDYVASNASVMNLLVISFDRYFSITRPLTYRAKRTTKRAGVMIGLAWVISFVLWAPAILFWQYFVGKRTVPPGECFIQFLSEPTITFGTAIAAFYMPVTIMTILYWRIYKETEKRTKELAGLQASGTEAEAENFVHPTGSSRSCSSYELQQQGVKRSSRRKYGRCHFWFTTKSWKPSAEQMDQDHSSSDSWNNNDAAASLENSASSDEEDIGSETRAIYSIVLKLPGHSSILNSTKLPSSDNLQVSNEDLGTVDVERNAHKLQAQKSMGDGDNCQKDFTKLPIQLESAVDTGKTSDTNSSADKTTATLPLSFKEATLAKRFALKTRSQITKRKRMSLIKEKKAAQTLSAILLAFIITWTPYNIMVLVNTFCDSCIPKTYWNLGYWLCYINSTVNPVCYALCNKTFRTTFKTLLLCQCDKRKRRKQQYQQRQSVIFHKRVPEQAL

| SMILES | activation [1] | EC50 [2] | EC50 [3] | Emax [4] | EC50 [5] | EC50 [6] | EC50 [7] |
| --- | --- | --- | --- | --- | --- | --- | --- |
| CCOC(=O)N1CCC(N2CCC[C@@H](NC(=O)c3ccc(F)cc3C)C2)CC1 | – | > 10 µM | > 10 µM | 77% | > 10 µM | > 10 µM | 0.06 µM |
| CCOC(=O)N1CCC(N2CCC[C@@H](NC(=O)c3ccc(OC)cc3)C2)CC1 | – | > 10 µM | > 10 µM | 63% | > 10 µM | > 10 µM | – |
| CCOC(=O)N1CCC(N2CCC[C@@H](NC(=O)c3cccs3)C2)CC1 | – | > 10 µM | > 10 µM | 61% | > 10 µM | > 10 µM | – |
| CCOC(=O)N1CCC(N2CCC[C@H](NC(=O)c3ccccc3C)C2)CC1 | inactive | – | – | – | – | – | – |
| CCOC(=O)N1CCC(N2CCC[C@@H](NC(=O)c3cccc(OC)c3)C2)CC1 | – | > 10 µM | > 10 µM | 91% | > 10 µM | > 10 µM | 0.25 µM |
| CCOC(=O)N1CCC(N2CCC[C@@H](NC(=O)c3ccccc3Cl)C2)CC1 | – | > 10 µM | > 10 µM | 57% | > 10 µM | > 10 µM | – |
| CCOC(=O)N1CCC(N2CCC[C@@H](NC(=O)C3CCCCC3)C2)CC1 | – | > 10 µM | > 10 µM | 44% | > 10 µM | > 10 µM | – |
| CCOC(=O)N1CCC(N2CCC[C@@H](NC(=O)c3ccccc3)C2)CC1 | – | > 10 µM | > 10 µM | 91% | > 10 µM | > 10 µM | 0.13 µM |
| CCOC(=O)N1CCC(N2CCC[C@@H](NC(=O)c3ccc(F)c(F)c3)C2)CC1 | – | > 10 µM | > 10 µM | 84% | > 10 µM | > 10 µM | – |
| CCOC(=O)N1CCC(N2CCC[C@@H](NC(=O)c3ccc(C)cc3)C2)CC1 | – | > 10 µM | > 10 µM | 41% | > 10 µM | > 10 µM | – |
| CCOC(=O)N1CCC(N2CCC[C@@H](NC(=O)C3CCCC3)C2)CC1 | – | > 10 µM | > 10 µM | 35% | > 10 µM | > 10 µM | – |
| CCOC(=O)N1CCC(N2CCC[C@@H](NC(=O)c3cccc(F)c3)C2)CC1 | – | > 10 µM | > 10 µM | 92% | > 10 µM | > 10 µM | 0.14 µM |

Further lines, results first:

| activation [1] | EC50 [2] | EC50 [3] | Emax [4] | EC50 [5] | EC50 [6] | EC50 [7] | SMILES |
| --- | --- | --- | --- | --- | --- | --- | --- |
| < 30% | – | – | – | – | – | – | CCOC(=O)N1CCC(N2CCN(C(=O)c3ccccc3C)CC2)CC1 |
| < 30% | – | – | – | – | – | – | CCOC(=O)N1CCC(N2C[C@H]3CN(C(=O)c4ccccc4C)C[C@H]3C2)CC1 |
| < 30% | – | – | – | – | – | – | CCOC(=O)N1CCC(N2CC[C@@H](NC(=O)c3ccccc3C)C2)CC1 |
| < 30% | – | – | – | – | – | – | CCOC(=O)N1CCC(N2C[C@@H]3C[C@H]2CN3C(=O)c2ccccc2C)CC1 |
| < 30% | – | – | – | – | – | – | CCOC(=O)N1CCC(N2CC[C@H](NC(=O)c3ccccc3C)C2)CC1 |
| < 30% | – | – | – | – | – | – | CCOC(=O)N1CCC(N[C@H]2CCN(C(=O)c3ccccc3C)C2)CC1 |
| < 30% | – | – | – | – | – | – | CCOC(=O)N1CCC(N[C@@H]2CCN(C(=O)c3ccccc3C)C2)CC1 |

Reference: ChEMBL document CHEMBL1914417 (Bioorg Med Chem Lett, 2011)
